In PMC8850458, “The AUTOTAC chemical biology platform for targeted protein degradation via the autophagy-lysosome system” (Nature Communications, 2022):
Several values for one entry are separate records, joined by “and”; a condition that tells them apart may be missing. Equal values may be shown once.

Key:
[1] = tested on: Ub^+ and p62^+ puncta; assay: ICC of Ub (FK2) and p62 puncta in HeLa cells; assay type: cell-based; conditions: Fig. 4g; for FK2 (Ub) / p62 colocalization, cells counted per 50 cells (individual replicates): listed as PBA
Method: Fig. 4 Targeted autophagic delivery and degradation of misfolded protein cargoes using AUTOTACs with aggregate-binding warhead. a A model illustrating the mode of action of aggregate-targeting AUTOTAC. b Chemical structures of PBA-1105, PBA-1106, Anle138b-F105 and PBA-1105b. c In vitro p62 oligomerization assay in HEK293T cells incubated with the indicated compounds in (b). d WB in HEK293T cells treated with MG132 (1 μM, 24 h), HCQ (10 μM, 24 h), PBA-1105, YTK-1105, and PBA (1 μM, 24 h). e Identical to (d), but with Anle-F105. f ICC of HeLa cells treated with HCQ (10 μM, 24 h), MG132 (2 μM, 18 h) or both in the presence of PBA-1106, YOK-1106 or PBA (1 μM, 24 h). Scale bar, 10 μm. g Quantification of (f) (n = 3, 50 cells). h ICC of HeLa cells treated with Anle138b-F105 (1 μM, 24 h). Scale bar, 10 μm. i Quantification of (h) (n = 3, 50 cells). When indicated, n = 3 biologically independent experiments each counting 50 cells. Data are presented as mean values ± SD where relevant. P-values (from a two-sided unpaired t test): ***P < 7.66E−05. Source data are provided with this paper.
(§1) Cells were cultured on coverslips coated with poly-L-lysine (Sigma) to observe cellular localization of proteins. Using 4% paraformaldehyde in PBS (pH 7.4), the cells were fixed for 15 min at room temperature and washed three times for 5 min with PBS. After fixing, the cells were permeabilized with 0.5% Triton X-100 in PBS solution for 15 min and washed three times with PBS for 5 min. The cells were blocked containing 2% BSA in PBS solution for 1 h at room temperature. Subsequently, the cells were incubated with primary antibody diluted in 2% BSA/PBS solution overnight at 4 °C, followed by washing the cells three times for 10 min with PBS and incubated with Alexa Fluor-conjugated secondary antibody diluted in 2% BSA/PBS for 30 min at room temperature. Using a DAPI-containing mounting medium (Vector Laboratories), the coverslips were mounted on glass slides. Confocal images were taken by laser scanning confocal microscope 510 Meta (Zeiss) and analyzed by Zeiss LSM Image Browser (ver. 4.2.0.121). […] Quantification results are shown as mean ± S.D. or S.E.M. of three independent experiments

[2] = molecular target: T1, tau oligomers (htauP301L-BiFC bodies) and phosphorylated tau-BiFC (Homo sapiens, UniProt P10636, P618L); assay: Immunohistochemistry of BiFC and AT8 fluorescence in brains of hTauP301L-BiFC mice; assay type: in vivo; conditions: Fig. 6k; for Sudan black B (BiFC fluorescence) CA1, per animal: control AVG 32.0843; for Sudan black B (BiFC fluorescence) Cortex, per animal: control AVG 98.7415
T1 construct: from tissue; host or cells: brain of 9-month-old hTauP301L-BiFC transgenic mice (C57BL/6)
T1 sequence (P10636 1-441 isoform P10636-8 P301L): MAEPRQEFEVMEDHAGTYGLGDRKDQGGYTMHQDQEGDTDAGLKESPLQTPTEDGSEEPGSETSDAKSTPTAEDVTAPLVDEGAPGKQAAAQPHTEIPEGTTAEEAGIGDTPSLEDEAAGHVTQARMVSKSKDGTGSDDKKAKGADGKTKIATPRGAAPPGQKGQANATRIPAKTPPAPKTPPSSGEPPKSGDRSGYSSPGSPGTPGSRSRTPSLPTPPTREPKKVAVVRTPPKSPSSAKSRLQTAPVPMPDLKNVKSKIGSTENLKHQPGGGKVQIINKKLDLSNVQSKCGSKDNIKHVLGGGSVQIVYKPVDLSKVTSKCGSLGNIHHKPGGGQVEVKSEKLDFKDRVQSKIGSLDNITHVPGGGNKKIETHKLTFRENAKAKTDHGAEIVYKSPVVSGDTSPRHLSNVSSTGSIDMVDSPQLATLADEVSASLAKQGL
Method: To evaluate the effect of PBA-1105 on tau aggregation in vivo, PBA-1105 was intraperitoneally administered to 9-month-old TauP301L-mice (n = 7 per group) with 20 or 50 mg/kg dosage. PBS containing 30% polyethylene glycol (PEG) was used as a vehicle. Twelve total administrations were performed for 4 weeks, three times a week.
Mice were anesthetized by intraperitoneal injection of 2% avertin (2,2,2-Tribromoethanol). Mice were then perfused with 0.9% saline. Brains were rapidly extracted and fixed with PBS containing 4% paraformaldehyde for 48 hr. For, cryprotection, the brains were infiltrated with PBS containing 30% sucrose at 4 °C until they sunk. For cryosectioning, the brains were embedded with O.C.T (Leica, Germany) and serially cut in the coronal plane into 30-μm thick sections on a cryostat microtome (Leica). Tissue slices were transferred to PBS containing 0.05% sodium azide as a preservative and stored at 4 °C.
To reduce autofluorescence of brain tissues, Sudan Black B stain was performed. Brain tissue slices were mounted onto glass slides and were stained with Sudan Black B solution (70 % ethanol containing 0.05% Sudan Black B) for 10 min. Then, to eliminate the excessive stain, the slides were dipped in PBS containing 0.1% Triton X-100 three times and washed with distilled water after. For nuclei counter-stain, brain tissues were stained with 0.5 μg/mL Hoechst in distilled water for 30 min. BiFC fluorescence (λex = 460−490 nm and λem = 500−550 nm) of brain slices were imaged using ZEISS® Axio Scan.Z1 (Zeiss, Germany). Fluorescence and total area of each puncta were measured using ImageJ (NIH, Bethesda).

[3] = PK parameters in ICR mice; assay type: in vivo; conditions: single injection
[4] = molecular target: tauP301L insoluble and soluble species (Homo sapiens, UniProt P10636, P618L); assay: Triton X-100-based insoluble/soluble fractionation; assay type: cell-based; conditions: 2.5 μM 24 h, HCQ 10 μM
tauP301L insoluble and soluble species, sequence (P10636 1-441 isoform P10636-8 P301L): as above
Method: SH-SY5Y-tau BiFC cells were treated with PBA-1105, PBA and YTK-1105 to determine the degraded fraction of Tau. Using a cell lysis buffer (20 mM HEPES pH 7.9, 0.2 M KCl, 1 mM MgCl2, 1 mM EGTA, 1% Triton X-100, 10% glycerol, protease inhibitor and phosphatase inhibitor), the cells were collected and incubated on ice for 15 min, followed by centrifugation at 13,000 g for 10 min at 4 °C. The supernatant was collected as the soluble fraction and the pellet as the insoluble fraction. Using PBS, the insoluble fraction was washed 4 times and lysed with a SDS-detergent lysis buffer (20 mM HEPES pH 7.9, 0.2 M KCl, 1 mM MgCl2, 1 mM EGTA, 1% Triton x-100, 1% SDS, 10% glycerol, protease inhibitors and phosphatase inhibitors). 5X Laemmli sample buffer was added to the soluble and insoluble samples and boiled for 10 min at 100 °C and loaded on a SDS-PAGE gel.

[5] = tested on: AR^+LC3^+ autophagic membranes; assay: ICC of AR-LC3 co-localization in LNCaP cells; assay type: cell-based; conditions: 2.5 µM, 24 h
Method: as §1

O=C(O)CCCc1ccccc1 [4-PBA, 4-phenylbutyric acid]
FK2 (Ub) / p62 colocalization, AVG of cells per 50 cells ([1]; no co-treatment (con)): 6.333 | FK2 (Ub) / p62 colocalization, percentage AVG ([1]; no co-treatment (con)): 12.6667 percentage | FK2 (Ub) / p62 colocalization, cells counted per 50 cells (individual replicates) ([1]; no co-treatment (con), count out of 50 cells): 7 and 9 and 3 | FK2 (Ub) / p62 colocalization, AVG of cells per 50 cells ([1]; with HCQ): 19 | FK2 (Ub) / p62 colocalization, percentage AVG ([1]; with HCQ): 38 percentage | FK2 (Ub) / p62 colocalization, cells counted per 50 cells (individual replicates) ([1]; with HCQ, count out of 50 cells): 25 and 15 and 17 | FK2 (Ub) / p62 colocalization, AVG of cells per 50 cells ([1]; with MG132): 24 | FK2 (Ub) / p62 colocalization, percentage AVG ([1]; with MG132): 48 percentage | FK2 (Ub) / p62 colocalization, AVG of cells per 50 cells ([1]; with MG132+HCQ): 35.3333 | FK2 (Ub) / p62 colocalization, percentage AVG ([1]; with MG132+HCQ): 70.6667 percentage | FK2 (Ub) / p62 colocalization, cells counted per 50 cells (individual replicates) ([1]; with MG132+HCQ, count out of 50 cells): 32 and 39 and 35 | FK2 (Ub) / p62 colocalization, cells counted per 50 cells (individual replicates) ([1]; with MG132, count out of 50 cells): 13 and 33 and 26

O=C(CCCc1ccccc1)NCCOCCOCCOCCNCc1ccc(OCc2ccccc2)c(OCc2ccccc2)c1 [PBA-1105]
Sudan black B AVG % CA1 ([2]; 20 mg/kg, control 100): 74.803% | Sudan black B AVG % Cortex ([2]; 20 mg/kg, control 100): 62.7215% | Sudan black B (BiFC fluorescence) CA1, per animal ([2]; 20 mg/kg): 19.17 and 25.62 and 30.19 and 23.53 and 13.28 and 12.8 and 43.41 | Sudan black B (BiFC fluorescence) Cortex, per animal ([2]; 20 mg/kg): 48.97 and 40.445 and 49.503 and 29.786 and 68.378 and 118.96 and 77.483 | Sudan black B AVG % Cortex ([2]; 50 mg/kg, control 100): 38.7498% | Sudan black B (BiFC fluorescence) CA1, per animal ([2]; 50 mg/kg): 28.22 and 22.5 and 36.39 and 26.84 and 28.79 and 49.66 and 49.74 | Sudan black B (BiFC fluorescence) Cortex, per animal ([2]; 50 mg/kg): 22.584 and 15.381 and 25.562 and 21.978 and 66.624 and 61.234 and 54.472 | exposure [3]: good albeit rapidly metabolized exposure | autophagic degradation of detergent-soluble and -insoluble tauP301L [4]: promoted autophagic degradation of not only detergent-soluble but critically also -insoluble species

C=CC(C)(O)C(=O)N(C(=O)NCCOCCOCCNCC(O)COc1ccc(OCCc2ccccc2)c(OCCc2ccccc2)c1)c1cc(Cl)cc(Cl)c1 (stereo not drawn) [VinclozolinM2-2204]
AR-LC3 colocalization, AVG of cells of 50 [5]: 40 | AR-LC3 colocalization, percentage AVG [5]: 80% | AR-LC3 colocalization, cells of 50 cells counted ([5]; single experiments, listed as Vinclo.-2204): 41 and 36 and 43
